System: 422866-222-R5-J1-PDC complex spheroid viability
Assay: Anticancer human tumor 422866-222-R5-J1-PDC patient-derived pancreatic adenocarcinoma cell line growth inhibition [POLQ]
Conditions: for IC50: curve of first compound; for viability, T/C: stronger effect = lower value
Experimental: Multicellular complex tumor spheroid response to Polymerase (POL) inhibitors (novobiocin, ART-558, RP6685) in combination with a variety of drugs and investigational agents in selected tumor cell lines
The POL inhibitors (novobiocin, ART-558, and RP6685) were evaluated both individually and in combination with standard of care and investigational anticancer small molecules within a complex spheroid model of solid tumors. . Complex spheroids include a stromal component modeled by human endothelial cells (HUVEC) and fibroblasts modeled by human mesenchymal stem cells (MSCs). The concentration ranges selected for each drug and investigational agent were based upon clinically achievable concentrations if the clinical Cmax of the agent was known.
Compounds. The drugs and investigational agents: novobiocin (NSC847541), ART-558 (NSC835418), RP-6685 (NSC848927), peposertib (NSC802822), ceralasertib (NSC780249), elimusertib (NSC800525), camonsertib (NSC841442), AZD-1390 (NSC803789), olaparib (NSC753686), talazoparib (NSC767125), rucaparib (NSC756644), sotorasib (NSC818433), MRTX-1133 (NSC836407), SN-38 (NSC673596), topotecan (NSC609699), epotoside (NSC141540), doxorubicin (NSC123127), gemcitabine (NSC613327), 5-fluorouracil (NSC19893), paclitaxel (NSC125973), vemurafenib (NSC761431), MSA-2 (NSC828583), SN-011 (NSC837082), adavosertib (NSC754352), prexasertib (NSC758257), carboplatin (NSC241240) and oxaliplatin (NSC266046), were obtained from the National Cancer Institute (NCI) Developmental Therapeutics Program Chemical Repository (21). The FDA-approved anticancer drug set is available from the Developmental Therapeutics Program at https://dtp.cancer.gov/organization/dscb/obtaining/. […] The stock solutions were prepared in dimethyl sulfoxide (DMSO, Sigma-Aldrich, St. Louis, MO, cat. D2650), except for the platinum compounds which were prepared in saline (Quality Biological, Gaithersburg, MD, cat. 114-055-101), at 800-fold the tested concentration and stored at -70 degrees C prior to their use. All drugs and investigational agents were tested over a range starting from a high concentration at or near the clinical Cmax and decreasing in half-log increments. If the clinical Cmax for an agent had not been determined, the highest concentration tested was 10 microM, except for SN-38, which was tested at a high concentration of 1 microM.
Cell Culture. All cells were maintained in an incubator at 37 degrees C and 5% CO2 with 95% humidity. The PDC lines were cultured according to standard operating procedures established by the NCI PDMR (https://pdmr.cancer.gov). Table 3 of the manuscript, lists the cell lines along with the number of the three cell types plated to form the mct-spheroids and media for tumor cell growth. After thawing, all PDC lines, except 997537-175-T-J1-PDC and 415267-285-R-J2-PDC, were cultured in Matrigel-coated flasks prepared with a working solution of 1X Ham's F-12 nutrient mix, without supplementation (Thermo Fisher Scientific, cat. 11765054), 100 U/mL penicillin-streptomycin (Thermo Fisher Scientific, cat. 15140122), and 2.5% Matrigel (Corning Inc., Corning, NY, cat. 354248) for the first three passages. The two PDC lines 997537-175-T-J1-PDC and 415267-285-R-J2-PDC were cultured on uncoated flasks. The 857933-349-R-J2-PDC line was cultured in 6C/Colon 1B media containing advanced DMEM/F-12 (Thermo Fisher Scientific, cat. 12634028), 10 mM HEPES (Thermo Fisher Scientific, cat. 15630080), 1X GlutaMAX supplement (Thermo Fisher Scientific, cat. 35050061), 0.1 mg/mL primocin (InvivoGen, San Diego, CA, cat. ant-pm-2), 10% defined fetal bovine serum, heat inactivated (HyClone Laboratories Inc., Logan, UT, cat. SH30070.03HI), 50% L-WRN conditioned media (ATCC, cat. CRL-3276), 1.25 mM N-Acetyl-L-cysteine (Sigma-Aldrich, cat. A9165), 10 mM nicotinamide (Sigma-Aldrich, cat. N0636), 1X B-27 supplement (Thermo Fisher Scientific, cat. 17504044), 1X N-2 supplement (Thermo Fisher Scientific, cat. […]

[1] = second compound 0.0316 µM, first compound 0.0316 µM
[2] = second compound 0.0316 µM, first compound 0.1 µM
[3] = second compound 0.0316 µM, first compound 0.316 µM
[4] = second compound 0.0316 µM, first compound 1 µM
[5] = second compound 0.1 µM, first compound 0.0316 µM
[6] = second compound 0.1 µM, first compound 0.1 µM
[7] = second compound 0.1 µM, first compound 0.316 µM
[8] = second compound 0.1 µM, first compound 1 µM
[9] = second compound 0.316 µM, first compound 0.0316 µM
[10] = second compound 0.316 µM, first compound 0.1 µM
[11] = second compound 0.316 µM, first compound 0.316 µM
[12] = second compound 0.316 µM, first compound 1 µM
[13] = second compound 1 µM, first compound 0.0316 µM
[14] = second compound 1 µM, first compound 0.1 µM
[15] = second compound 1 µM, first compound 0.316 µM
[16] = second compound 1 µM, first compound 1 µM
[17] = second compound 3.16 µM, first compound 0.0316 µM
[18] = second compound 3.16 µM, first compound 0.1 µM
[19] = second compound 3.16 µM, first compound 0.316 µM
[20] = second compound 3.16 µM, first compound 1 µM
[21] = second compound 10 µM, first compound 0.0316 µM
[22] = second compound 10 µM, first compound 0.1 µM
[23] = second compound 10 µM, first compound 0.316 µM
[24] = second compound 10 µM, first compound 1 µM
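Note: spheroids exposed to compounds for one week before readout.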
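Throughout, for viability, T/C: percent of DMSO vehicle wells luminescence so 100% = untreated viability.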

Molecule `C=CCn1c(=O)c2cnc(Nc3ccc(N4CCN(C)CC4)cc3)nc2n1-c1cccc(C(C)(C)O)n1` + Nc1ccc(C#CCN(C(=O)Cc2ncc(C(F)(F)F)cc2C(F)(F)F)c2ccc(F)cc2)nn1 has an IC50 (second compound 0.0316 µM) of 290 nM, an IC50 (second compound 0.1 µM) of 270 nM and an IC50 (second compound 0.316 µM) of 252 nM. It also gave an IC50 (second compound 1 µM) of 311 nM, an IC50 (second compound 3.16 µM) of 251 nM and an IC50 (second compound 10 µM) of 257 nM. The viability, T/C (second compound 0.0316 µM, first compound 0.00316 µM) was 88%, the viability, T/C (second compound 0.0316 µM, first compound 0.01 µM) was 96.6% and the viability, T/C [1] was 92.1%. For the same molecule, the viability, T/C [2] was 79.7%, the viability, T/C [3] was 47.8% and the viability, T/C [4] was 33.7%. For the same molecule, the viability, T/C (second compound 0.1 µM, first compound 0.00316 µM) was 98%, the viability, T/C (second compound 0.1 µM, first compound 0.01 µM) was 102% and the viability, T/C [5] was 98.2%. For the same molecule, the viability, T/C [6] was 80.8%, the viability, T/C [7] was 45.2% and the viability, T/C [8] was 32.8%. The viability, T/C (second compound 0.316 µM, first compound 0.00316 µM) was 97%, the viability, T/C (second compound 0.316 µM, first compound 0.01 µM) was 89.7% and the viability, T/C [9] was 99.7%. It also gave a viability, T/C [10] of 71.9%, a viability, T/C [11] of 46.5% and a viability, T/C [12] of 34.6%. It also gave a viability, T/C (second compound 1 µM, first compound 0.00316 µM) of 97.6%, a viability, T/C (second compound 1 µM, first compound 0.01 µM) of 91.4% and a viability, T/C [13] of 115%. The viability, T/C [14] was 76.2%, the viability, T/C [15] was 53.5% and the viability, T/C [16] was 34.3%. For the same molecule, the viability, T/C (second compound 3.16 µM, first compound 0.00316 µM) was 78.1%, the viability, T/C (second compound 3.16 µM, first compound 0.01 µM) was 97.1% and the viability, T/C [17] was 128%. The viability, T/C [18] was 69.5%, the viability, T/C [19] was 53.6% and the viability, T/C [20] was 36.6%. It also gave a viability, T/C (second compound 10 µM, first compound 0.00316 µM) of 106%, a viability, T/C (second compound 10 µM, first compound 0.01 µM) of 104% and a viability, T/C [21] of 103%. The viability, T/C [22] was 78.7%, the viability, T/C [23] was 44% and the viability, T/C [24] was 35.7%.

With `CC1COCCN1c1cc(-c2ccnn2C)c2ccnc(-c3ccn[nH]3)c2n1` (centres undefined) + Nc1ccc(C#CCN(C(=O)Cc2ncc(C(F)(F)F)cc2C(F)(F)F)c2ccc(F)cc2)nn1 the IC50 (second compound 0.0316 µM) was > 10000 nM, the IC50 (second compound 0.1 µM) was > 10000 nM and the IC50 (second compound 0.316 µM) was > 10000 nM. For the same molecule, the IC50 (second compound 1 µM) was 10000 nM, the IC50 (second compound 3.16 µM) was 232 nM and the IC50 (second compound 10 µM) was > 10000 nM. It also gave a viability, T/C [1] of 110%, a viability, T/C [2] of 52.5% and a viability, T/C [3] of 35.8%. The viability, T/C [4] was 31.4%, the viability, T/C (second compound 0.0316 µM, first compound 3.16 µM) was 72.4% and the viability, T/C (second compound 0.0316 µM, first compound 10 µM) was 67.8%. The viability, T/C [5] was 112%, the viability, T/C [6] was 49.3% and the viability, T/C [7] was 44.4%. For the same molecule, the viability, T/C [8] was 37.4%, the viability, T/C (second compound 0.1 µM, first compound 3.16 µM) was 45% and the viability, T/C (second compound 0.1 µM, first compound 10 µM) was 81.1%. It also gave a viability, T/C [9] of 90.7%, a viability, T/C [10] of 45.4% and a viability, T/C [11] of 33.7%. For the same molecule, the viability, T/C [12] was 34%, the viability, T/C (second compound 0.316 µM, first compound 3.16 µM) was 68.2% and the viability, T/C (second compound 0.316 µM, first compound 10 µM) was 83.4%. The viability, T/C [13] was 87%, the viability, T/C [14] was 62.4% and the viability, T/C [15] was 38.5%. For the same molecule, the viability, T/C [16] was 29.9%, the viability, T/C (second compound 1 µM, first compound 3.16 µM) was 61.5% and the viability, T/C (second compound 1 µM, first compound 10 µM) was 73%. It also gave a viability, T/C [17] of 96.6%, a viability, T/C [18] of 51.6% and a viability, T/C [19] of 32.6%. The viability, T/C [20] was 29.8%, the viability, T/C (second compound 3.16 µM, first compound 3.16 µM) was 61.5% and the viability, T/C (second compound 3.16 µM, first compound 10 µM) was 74.2%. It also gave a viability, T/C [21] of 102%, a viability, T/C [22] of 41.1% and a viability, T/C [23] of 39.6%. It also gave a viability, T/C [24] of 36.2%, a viability, T/C (second compound 10 µM, first compound 3.16 µM) of 79.8% and a viability, T/C (second compound 10 µM, first compound 10 µM) of 74.8%.
